Consider 4 molecules from ChEMBL document CHEMBL1201862, “PubChem BioAssay data set” (2004).

Common to all, as to assay: growth of human tumour cells (NCI), 48 h
In assay [1] the test system is SNB-75.
Assay [2] relates to ACHN.
Assay [3] relates to SN12C.
Assay [4] relates to IGROV-1.
Assay [5] relates to NCI-H23.
Assay [6] relates to SK-MEL-5.
The subject of assay [7] is U-251.
The subject of assay [8] is KM12.
Assay [9] concerns SK-MEL-28.
Assay [10] deals with 786-0.
Assay [11] concerns CAKI-1.
Assay [12] relates to SF-295.
Assay [13] concerns OVCAR-8.
For assay [14], the system named is RPMI-8226.
For assay [15], the system named is UO-31.
Assay [16] relates to EKVX.
Assay [17] relates to UACC-62.
Assay [18] has as its system SNB-19.
For assay [19], the system named is HT-29.
In assay [20] the test system is HCT-116.

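All cell lines were grown in 96-well plates and treated with compound for 48 hours. GI50 is the concentration that inhibits growth by half.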 The source made the active and inactive calls. Rule as the data show it: active = GI50 up to about 1.1 µM and inactive = higher.

Turning to `CN(C)CCC1(C2=CCCC2)CC/C(=C\c2ccccc2)C1=O` (stereo not given), the GI50 is 17 µM (inactive) in assay [1]; 15.3 µM (inactive) in assay [2]; 17 µM (inactive) in [3]; 15.5 µM (inactive) in [4]; 21.8 µM (inactive) in assay [5]; 14.7 µM (inactive) in [6]. The GI50 was 16.6 µM (inactive) in [7]; 15.5 µM (inactive) in assay [8]; 21.8 µM (inactive) in assay [9]; 14.7 µM (inactive) in [10]; 12.5 µM (inactive) in assay [11]; 19.1 µM (inactive) in [12]. For the same molecule, the GI50 in assay [13] is 16.1 µM (inactive); in assay [14] it was 14.6 µM (inactive); in [15], 16.6 µM (inactive); in [16], 11.8 µM (inactive); in assay [17], 13.6 µM (inactive); in [18] it was 14.7 µM (inactive). Further, the GI50 in assay [19] was 17.1 µM (inactive); in [20] it was 19.5 µM (inactive).

With `C=C(Cl)C(Br)(CCl)CCC(Br)C(C)(C)Cl` (stereo not given), the GI50 in [1] was 3.6 µM (inactive); in assay [2], 7.96 µM (inactive); in assay [3], 2.84 µM (inactive); in assay [4] it was 5.82 µM (inactive); in [5], 3.75 µM (inactive); in [6], 2.47 µM (inactive). Besides, the GI50 in [7] is 7.24 µM (inactive); in assay [8], 6.87 µM (inactive); in [9], 4.68 µM (inactive); in assay [10] it was 1.95 µM (inactive); in [11], 4.95 µM (inactive); in assay [12], 5.77 µM (inactive). Moreover, the GI50 in assay [13] was 3.38 µM (inactive); in assay [14] it was 2.06 µM (inactive); in assay [15], 5.61 µM (inactive); in assay [16] it was 5.58 µM (inactive); in [17] it was 3.37 µM (inactive); in assay [18], 3.48 µM (inactive). In addition, the GI50 in assay [19] was 2.02 µM (inactive); in [20], 1.72 µM (inactive).

Turning to `C/C(=N\N=C(/S)N1CCCCCC1)c1cccc[n+]1[O-]`, the GI50 was 10.5 µM (inactive) in [1]; 4.58 µM (inactive) in [2]; 13.8 µM (inactive) in assay [3]; 1.91 µM (inactive) in assay [4]; 5.82 µM (inactive) in [5]; 2.22 µM (inactive) in [6]. Besides, the GI50 was 6.28 µM (inactive) in assay [7]; 4.52 µM (inactive) in [8]; 6.58 µM (inactive) in [9]; 1.53 µM (inactive) in assay [10]; 6.37 µM (inactive) in assay [11]; 5.3 µM (inactive) in assay [12]. Moreover, the GI50 is 3.12 µM (inactive) in assay [13]; 0.116 µM (active) in assay [14]; 7.55 µM (inactive) in assay [15]; 7.23 µM (inactive) in assay [16]; 1.88 µM (inactive) in assay [17]; 7.41 µM (inactive) in assay [18]. Also, the values for the GI50 in assay [19] and in assay [20] were 0.31 µM (active) and 0.433 µM (active), respectively.

As to `CCOC(=O)C(SCCO)C(C(=O)OCC)n1ccc(=O)[nH]c1=O` (stereo not given), the GI50 was 25.4 µM (inactive) in [1]; 21.2 µM (inactive) in assay [2]; 22.1 µM (inactive) in assay [3]; 31.9 µM (inactive) in [4]; 34.3 µM (inactive) in assay [5]; 63.5 µM (inactive) in [6]. Besides, the GI50 was 27.6 µM (inactive) in assay [7]; 37 µM (inactive) in assay [8]; 28.8 µM (inactive) in assay [9]; 16.6 µM (inactive) in assay [10]; 7.83 µM (inactive) in assay [11]; > 100 µM (inactive) in [12]. Besides, the GI50 in assay [13] is 25.1 µM (inactive); in [14], 17.5 µM (inactive); in assay [15] it was > 92 µM (inactive); in assay [16] it was 75.9 µM (inactive); in assay [17], 20.4 µM (inactive); in assay [18], > 100 µM (inactive). The GI50 in [19] is 23.5 µM (inactive); in assay [20] it was 16.3 µM (inactive).
